For experiment [1], the system named is B. subtilis 1A40 cells. As to the kind of experiment: Light emission, click beetle luciferase (pCSS962), IPTG induced. As to conditions: incubation 2 hours at 30° C.; FIG. 11b. In kind it is cell-based, Bacillus subtilis. The procedure:
Using this construction, the production of luciferase can be turned on in B. subtilis by simple addition of IPTG, which binds to the lac repressor coded by the helper plasmid pBL1 present in the same cell. After IPTG binds to the repressor, the repressor cannot bind to the DNA region between phage T5 promoter and the luciferase gene thus allowing the expression of luciferase. Cells containing both plasmids were cultured overnight in 2×TY containing erythromycin (10 μg/ml, to keep pBL1 in the cell) and kanamycin (10 μg/ml, to keep pCSS952 in the cell). A suitable dilution was made and different amounts of antibiotic were added to the cells. After an incubation period of 2 hours at 30° C., the tubes were measured for light emission after addition of 1 mM D-luciferin substrate in 0.1 M Na-citrate. As shown in FIG. 11b a low amount of 0.1 ug/ml ampicillin and even lower amounts of oxytetracyclin and streptomycin can be detected.

Experiment [2] has as its system metallothioneins. The note with it: cadmium added to growth medium to 4×10^−6 molar; eucaryotic cells; cited from earlier work.
Experiment [3] relates to E. coli pCSS112/K-12 HI trp(c1857). As to the kind of experiment: Light production, bacterial luciferase under PL promoter (pCSS112). In kind it is cell-based, Escherichia coli. The note with it: concentration in the measuring cuvette; 20 min at 30° C., 42° C. for 10 minutes. The procedure: A comparison is made between plasmids where the expression of bacterial luciferase genes are controlled by either lac (slow) or PL promoter (fast) promoters. E. coli clone pCSS112/K-12 HI trp(c1857) was grown overnight in 2×TY medium containing ampicillin 100 μg/ml. After this a suitable dilution was made in HBSS-buffer or in milk and 500 μl of this was added to 3 ml luminometer tubes. The tubes were equilibrated to 30° C. and different amounts of various toxic substances were added to tubes. Tubes were kept at 30° C. for 20 min, after which the temperature was shifted to 42° C. for 10 minutes. Thereafter the tubes were removed to luminometer chamber which had been equilibrated to 30° C. for automated measurement. As a comparison, an E. coli JM103 clone containing plasmid pCSS108 was used as a control. The control cells were treated similarly but without the heat-shock step. Messanger RNA and protein synthesis were induced in the control cells by adding IPTG to 1 mM. […] In case of chloramphenicol, the kinetics of light production have been shown in FIG. 11a when plasmid pCSS112 in E. coli K-12 HI trp(c1857) strain is used.
The following examples show detection of substances affecting other biosynthetic routes and metabolism of cells. […]
The following figures show the effect of each tested substance as measured by light production. […]

Experiment [4] has as its system E. coli pCSS123/JM103 cells. As to the kind of experiment: Light production by cells with runaway-replication plasmid pCSS123. It counts as cell-based, Escherichia coli. The note with it: 20 min at 30° C., 42° C. one hour, IPTG 1 mM; FIG. 9a. The protocol: E. coli pCSS123/JM103 cells grown overnight were diluted 1:1000. Diluted cells in 2×TY were taken (0.5 ml) and various amounts of antibiotics or other toxic substances were added. These solutions were incubated 20 min at 30° C. After this the samples were transferred to 42° C. for one hour. Each tube was thereafter incubated at 30° C. in a waterbath and IPTG was added to 1 mM and n-decanal to 0.01%. The tubes were transferred to an automated light-gathering device, i.e., luminometer 1251 (LKB-Wallac, Turku, Finland) whose measuring chamber had been equilibrated to 30° C. Measurement of light emission by the cells was done with the auto-mode program so that each tube was automatically measured every two minutes. Data were collected in the memory of the computer for later analyses. […] For clarity reasons only two concentrations of chloramphenicol were compared to the untreated control.

Experiment [5] has as its system E. coli pCSS123/JM103 cells. As to the kind of experiment: Change in plasmid copy number: total DNA from heat-treated cells, agarose gel. The note with it: 42° C. for one hour; tested at 0, 1, 10 and 100 μg/ml; FIG. 8. In kind it is cell-based, Escherichia coli. The protocol: The plasmid pCSS123 described in the instant invention is a runaway-replication plasmid, in which a change in copy number can be obtained by shifting the temperature (FIG. 8). The effect of nalidixic acid, an agent known to inhibit DNA replication of cell DNA and especially of plasmid pCSS123 DNA, is shown in FIG. 8.
E. coli pCSS123/JM103 cells were cultivated in 20 ml of 2×TY at 30° C. in four Erlenmeyer bottles until the absorbance measured at 600 nm was 0.3. Nalidixic acid, a known inhibitor of DNA replication, was added to a final concentration of 0, 1, 10 and 100 μg/ml. Parallel samples of 1.5 ml from each bottle were immediately withdrawn to 15 ml tubes and kept at 30° C. for 20 min. The tubes were transferred to 42° C. for one hour and the bottles were left at 30° C. After one hour, both the tubes and the bottles were kept for an additional hour at 30° C. in a shaker. Total-DNA was extracted from 1.5 ml of culture.
Cells were centrifuged and the pellets were suspended in 500 μl 50 mM TRIS-HC1, pH 8.0, 50 mM EDTA. Cells were kept in an ice bath for 30 min and 50 μl of lysozyme (10 mg/ml) was added and kept in an ice bath for 45 min. One hundred μl of STEP solution (0.5% SDS, 50 mM TRIS-HC1, pH 7.5, 0.4 M EDTA) was added and kept at 50° C. for 60 min. After this, 600 μl of phenol was added and the tubes were gently mixed for 5 min and centrifuged 10 min at 12000×g. […]

For experiment [6], the system named is E. coli pCSS123/BW322. The note with it: heat induced at 42° C. for 25 minutes; FIG. 9d. The procedure:
Freeze-dried E. coli pCSS123/BW322 were reconstituted with 1.0 ml of 2×TY and 45 μl of this was diluted 1:10 with 2×TY. Five μl of trimethoprim dilutions were added and kept at room temperature for 25 minutes. Cells were heat induced at 42° C. for 25 minutes and equilibrated to 30° C. in a water bath for 10 minutes. n-decanal was added to 0.001% and light production was measured using a LKB-Wallac 1250 manual luminometer. Same concentrations of trimethoprim together with reconstituted, freeze-dried cells which were not heat-treated acted as controls.

For the molecule `CC1(C)S[C@@H]2[C@H](NC(=O)[C@H](N)c3ccccc3)C(=O)N2[C@H]1C(=O)O` [ampicillin], the “amount that can be detected by light emission” value in experiment [1] is 0.1 µg/mL.

On to `[Cd]` [cadmium], for which the “increase in the production of metallothioneins” value in experiment [2] is given as “over fifty”.

Regarding `O=C(N[C@H](CO)[C@H](O)c1ccc([N+](=O)[O-])cc1)C(Cl)Cl` [chloramphenicol], the “lowest concentration giving differences in measured activity (light production) from the start of measurement” value in experiment [3] worked out at 0.1 µg/mL.

Consider `CCn1cc(C(=O)O)c(=O)c2ccc(C)nc21` [nalidixic acid], for which, in experiment [4], the “amount that can be detected very quickly by light emission” value amounted to 2 µg. Also, in experiment [5], the “amount of nalidixic acid in whose presence DNA content was unaffected (no heat-induced increase of plasmid DNA)” value was at least 1 µg.

Consider `COc1cc(Cc2cnc(N)nc2N)cc(OC)c1OC` [trimethoprim], for which the “sensitivity of detection by light production” value in experiment [6] is reported as “sensitivity of the assay is very high”.

Values taken from patent US6475719B1, “Determination of factors affecting gene regulation and/or gene replication” (priority 1989, dated 2002).
